Assay results taken from PubChem BioAssay AID248 (DTP/NCI, 2004).
Where “and” joins values, the source holds several entries; their conditions need not be identical. Identical values can stand only once. Toxic doses and inconclusive results are not listed.

Tested on: L1210 leukemia ip in BDF1 mice, survival T/C
Assay: NCI In Vivo Anticancer Drug Screen. Data for tumor model L1210 Leukemia (intraperitoneal) in B6D2F1 (BDF1) mice
Conditions: endpoint: mean survival time, higher = longer survival
How it was run: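 Tumor was transplanted into mice, which were then dosed with test compound or vehicle alone. Survival was recorded for each group, and the treated figure was expressed relative to the control figure.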

[1] = dose: 100.0 mg/kg/injection, schedule: Q04DX003 (ip), vehicle: Klucel (hydroxypropylcellulose) (HPC)
[2] = dose: 100.0 mg/kg/injection, schedule: Q04DX003 (ip), vehicle: saline with Tween-80
[3] = dose: 200.0 mg/kg/injection, schedule: Q04DX003 (ip), vehicle: Klucel (hydroxypropylcellulose) (HPC)
[4] = dose: 200.0 mg/kg/injection, schedule: Q04DX003 (ip), vehicle: saline with Tween-80
[5] = dose: 400.0 mg/kg/injection, schedule: Q04DX003 (ip), vehicle: Klucel (hydroxypropylcellulose) (HPC)
[6] = dose: 400.0 mg/kg/injection, schedule: Q04DX003 (ip), vehicle: saline with Tween-80

Cc1cc(=O)[nH]c(N)n1
T/C [1]: 114 % of control | T/C [2]: 98 % of control | T/C [3]: 101 % of control | T/C [4]: 98 % of control | T/C [5]: 93 % of control | T/C [6]: 96 % of control

CCOc1c(Cl)cc(Cl)cc1C(c1ccc(Cl)cc1S(=O)(=O)O)c1cc(Cl)cc(Cl)c1OCC
T/C [2]: 89 % of control

COc1ccc2[nH]c(-c3ccccc3)c(-c3ccccc3)c2c1
T/C (dose: 100.0 mg/kg/injection, schedule: Q01DX009 (ip), vehicle: saline with Tween-80): 90 % of control | T/C [2]: 89 % of control | T/C [4]: 87 % of control | T/C [6]: 92 % of control

O=C1CCC(N2C(=O)C3C4C=CC(CC4)C3C2=O)C(=O)N1 (stereo not drawn)
T/C (dose: 100.0 mg/kg/injection, schedule: Q04DX003 (ip), vehicle: saline): 97 % of control | T/C (dose: 200.0 mg/kg/injection, schedule: Q04DX003 (ip), vehicle: saline): 102 % of control | T/C (dose: 400.0 mg/kg/injection, schedule: Q04DX003 (ip), vehicle: saline): 90 % of control

Cc1ccc2nc(NC(=O)N(CCCl)N=O)sc2c1
T/C (dose: 53.0 mg/kg/injection, schedule: Q01DX009 (ip), vehicle: carboxymethylcellulose (CMC)): 103 % of control | T/C (dose: 80.0 mg/kg/injection, schedule: Q01DX009 (ip), vehicle: carboxymethylcellulose (CMC)): 113 % of control | T/C (dose: 118.0 mg/kg/injection, schedule: Q01DX001 (ip), vehicle: other): 150 % of control | T/C (dose: 118.0 mg/kg/injection, schedule: Q01DX006 (ip), vehicle: other): 193 % of control | T/C (dose: 120.0 mg/kg/injection, schedule: Q01DX009 (ip), vehicle: carboxymethylcellulose (CMC)): 114 % of control | T/C (dose: 180.0 mg/kg/injection, schedule: Q01DX001 (ip), vehicle: carboxymethylcellulose (CMC)): 157 % of control | T/C (dose: 200.0 mg/kg/injection, schedule: Q01DX001 (ip), vehicle: carboxymethylcellulose (CMC)): 158 % of control | T/C (dose: 266.0 mg/kg/injection, schedule: Q01DX006 (ip), vehicle: other): 98 % of control | T/C (dose: 266.0 mg/kg/injection, schedule: Q01DX009 (ip), vehicle: carboxymethylcellulose (CMC)): 161 % of control | T/C (dose: 400.0 mg/kg/injection, schedule: Q01DX001 (ip), vehicle: carboxymethylcellulose (CMC)): 170 % of control | T/C (dose: 400.0 mg/kg/injection, schedule: Q01DX006 (ip), vehicle: other): 90 % of control

BrC1C2C=CC(C2)C1Br (stereo not drawn)
T/C [1]: 102 % of control | T/C [3]: 100 % of control | T/C [5]: 92 % of control

Cc1ccc(S/N=C\c2ccccc2O)cc1
T/C (dose: 50.0 mg/kg/injection, schedule: Q04DX002 (ip), vehicle: Klucel (hydroxypropylcellulose) (HPC)): 93 % of control | T/C (dose: 100.0 mg/kg/injection, schedule: Q04DX002 (ip), vehicle: Klucel (hydroxypropylcellulose) (HPC)): 100 % of control | T/C (dose: 200.0 mg/kg/injection, schedule: Q04DX002 (ip), vehicle: Klucel (hydroxypropylcellulose) (HPC)): 107 % of control and 91 % of control | T/C (dose: 400.0 mg/kg/injection, schedule: Q04DX002 (ip), vehicle: Klucel (hydroxypropylcellulose) (HPC)): 91 % of control

Oc1ccccc1CNc1nn[nH]n1
T/C (dose: 100.0 mg/kg/injection, schedule: Q01DX001 (ip), vehicle: Klucel (hydroxypropylcellulose) (HPC)): 101 % of control | T/C (dose: 200.0 mg/kg/injection, schedule: Q01DX001 (ip), vehicle: Klucel (hydroxypropylcellulose) (HPC)): 108 % of control | T/C (dose: 400.0 mg/kg/injection, schedule: Q01DX001 (ip), vehicle: Klucel (hydroxypropylcellulose) (HPC)): 103 % of control

CC(OCCO)C1CCC2C3CCC4=CC(=O)CCC4(C)C3C(O)C(C)C12C (stereo not drawn)
T/C (dose: 50.0 mg/kg/injection, schedule: Q01DX001 (sc), vehicle: steriod suspending solution): 102 % of control | T/C (dose: 100.0 mg/kg/injection, schedule: Q01DX001 (sc), vehicle: steriod suspending solution): 100 % of control | T/C (dose: 200.0 mg/kg/injection, schedule: Q01DX001 (sc), vehicle: steriod suspending solution): 110 % of control | T/C (dose: 400.0 mg/kg/injection, schedule: Q01DX001 (sc), vehicle: steriod suspending solution): 102 % of control

CC(C)=NNC(=O)c1ccc[n+](Cc2ccccc2)c1
T/C (dose: 75.0 mg/kg/injection, schedule: Q01DX001 (ip), vehicle: saline): 102 % of control | T/C (dose: 150.0 mg/kg/injection, schedule: Q01DX001 (ip), vehicle: saline): 98 % of control | T/C (dose: 300.0 mg/kg/injection, schedule: Q01DX001 (ip), vehicle: saline): 105 % of control

CN(C)c1ccc(-c2cc[n+](C)cc2)cc1
T/C (dose: 3.13 mg/kg/injection, schedule: Q04DX003 (ip), vehicle: saline): 101 % of control | T/C (dose: 6.25 mg/kg/injection, schedule: Q04DX003 (ip), vehicle: saline): 101 % of control | T/C (dose: 12.5 mg/kg/injection, schedule: Q04DX003 (ip), vehicle: saline): 104 % of control

C/C=C/C[P+](c1ccccc1)(c1ccccc1)c1cccc2ccccc12
T/C (dose: 25.0 mg/kg/injection, schedule: Q04DX002 (ip), vehicle: saline with Tween-80): 94 % of control

CN(C)CCCNCC(=O)N1CCN(C(=O)CNCCCN(C)C)CC1
T/C (dose: 50.0 mg/kg/injection, schedule: Q01DX001 (ip), vehicle: carboxymethylcellulose (CMC)): 106 % of control | T/C (dose: 100.0 mg/kg/injection, schedule: Q01DX001 (ip), vehicle: carboxymethylcellulose (CMC)): 106 % of control
